Measurements from ChEMBL document CHEMBL1201862, “PubChem BioAssay data set” (2004).
The source made the active and inactive calls.

Experiments:
Cytochrome P450 2C19 = Cytochrome P450 2C19 (Homo sapiens, UniProt P33261); test: Cytochrome panel assay with activity outcomes. Panel member name: p450-cyp2c19 Compounds with AC50 equal or less than 10 uM are considered active; type: functional; conditions: read-out: AC50
Cytochrome P450 2C9 = Cytochrome P450 2C9 (Homo sapiens, UniProt P11712)
[1] = molecular target: DNA dC->dU-editing enzyme APOBEC-3A (Homo sapiens, UniProt P31941); test: Dose Response confirmation of small molecule APOBEC3A DNA Deaminase Inhibitors via a fluorescence-based single-stranded DNA deaminase assay. [Related pubchem assays (depositor defined):AID493011, AID493024]; type: functional
[2] = molecular target: DNA dC->dU-editing enzyme APOBEC-3G (Homo sapiens, UniProt Q9HC16); type: functional;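 further: Dose-response counterscreen measuring inhibition of APOBEC3G DNA deaminase activity, run while confirming APOBEC3A inhibitors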
[3] = molecular target: T1, Tyrosyl-DNA phosphodiesterase 2 (Homo sapiens, UniProt O95551); test: potency against TDP2 phosphodiesterase activity – biochemical, epi absorbance, IC50, dose response (AID 743297)
T1 sequence (O95551 whole entry): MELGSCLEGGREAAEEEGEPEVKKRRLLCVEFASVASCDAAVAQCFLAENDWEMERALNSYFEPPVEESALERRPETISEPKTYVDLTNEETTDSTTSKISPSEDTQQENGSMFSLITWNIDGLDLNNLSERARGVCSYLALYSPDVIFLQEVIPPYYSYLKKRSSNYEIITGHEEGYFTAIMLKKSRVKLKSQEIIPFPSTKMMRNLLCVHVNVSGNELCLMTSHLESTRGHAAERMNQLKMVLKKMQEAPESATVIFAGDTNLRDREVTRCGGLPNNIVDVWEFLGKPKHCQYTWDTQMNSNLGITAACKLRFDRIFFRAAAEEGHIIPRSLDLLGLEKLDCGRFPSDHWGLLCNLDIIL

[4] = molecular target: T2, Histone-lysine N-methyltransferase NSD2 (Homo sapiens, UniProt O96028); type: biochemical
T2 sequence (O96028 whole entry): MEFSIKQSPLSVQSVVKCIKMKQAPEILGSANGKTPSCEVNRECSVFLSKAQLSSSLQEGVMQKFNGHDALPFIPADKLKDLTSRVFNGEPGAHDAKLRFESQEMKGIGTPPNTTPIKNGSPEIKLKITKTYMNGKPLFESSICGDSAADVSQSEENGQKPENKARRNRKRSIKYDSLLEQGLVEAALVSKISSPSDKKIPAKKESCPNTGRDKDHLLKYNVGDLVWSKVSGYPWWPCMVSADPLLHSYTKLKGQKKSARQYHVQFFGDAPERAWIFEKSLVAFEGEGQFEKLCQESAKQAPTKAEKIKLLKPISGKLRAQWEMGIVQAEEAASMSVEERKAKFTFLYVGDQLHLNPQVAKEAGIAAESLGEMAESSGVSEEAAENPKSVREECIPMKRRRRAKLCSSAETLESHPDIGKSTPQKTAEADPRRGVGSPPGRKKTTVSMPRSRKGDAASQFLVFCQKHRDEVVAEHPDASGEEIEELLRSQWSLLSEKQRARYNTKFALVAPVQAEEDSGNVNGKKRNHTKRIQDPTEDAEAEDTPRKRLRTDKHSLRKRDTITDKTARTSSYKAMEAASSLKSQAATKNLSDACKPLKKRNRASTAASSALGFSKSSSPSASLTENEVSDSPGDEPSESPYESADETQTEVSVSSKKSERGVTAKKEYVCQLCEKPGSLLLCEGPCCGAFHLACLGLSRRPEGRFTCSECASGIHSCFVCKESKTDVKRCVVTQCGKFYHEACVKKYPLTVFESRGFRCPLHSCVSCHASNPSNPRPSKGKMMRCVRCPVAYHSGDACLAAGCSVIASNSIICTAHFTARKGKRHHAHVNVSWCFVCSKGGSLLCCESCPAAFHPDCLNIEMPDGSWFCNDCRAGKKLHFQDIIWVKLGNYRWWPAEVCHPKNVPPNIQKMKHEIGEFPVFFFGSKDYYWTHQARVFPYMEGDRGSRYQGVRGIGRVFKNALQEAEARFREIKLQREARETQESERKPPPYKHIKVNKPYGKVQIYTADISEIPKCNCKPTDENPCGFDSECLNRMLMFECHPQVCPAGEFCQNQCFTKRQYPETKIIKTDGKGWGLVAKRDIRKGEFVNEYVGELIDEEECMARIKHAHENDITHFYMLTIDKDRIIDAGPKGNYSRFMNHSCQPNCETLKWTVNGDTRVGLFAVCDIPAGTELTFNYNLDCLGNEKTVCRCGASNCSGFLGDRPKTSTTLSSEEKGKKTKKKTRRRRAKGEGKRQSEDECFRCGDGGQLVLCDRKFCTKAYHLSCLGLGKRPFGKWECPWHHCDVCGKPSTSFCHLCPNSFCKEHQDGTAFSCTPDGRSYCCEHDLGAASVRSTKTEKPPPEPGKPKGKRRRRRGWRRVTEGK

[5] = molecular target: T3, Polyadenylate-binding protein 1 (Homo sapiens, UniProt P11940); test: MLLE domain peptide-binding blockers, IC50 – biochemical, fluorescence polarization, FITC-PAM2 peptide, dose response (AID 602259); type: functional; conditions: read-out: IC50_Mean
[6] = molecular target: T3, Polyadenylate-binding protein 1; test: MLLE binding blockers, Cy5 peptide tracer – biochemical, fluorescence polarization, Cy5-PAM2 peptide, secondary, miRNA deadenylation inhibitor project, dose response (AID 602260); type: functional; conditions: read-out: IC50_Mean
Cytochrome P450 3A4 = Cytochrome P450 3A4 (Homo sapiens, UniProt P08684);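 further: CYP3A4 tested as one member of a cytochrome P450 panel screen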
[7] = molecular target: T4, Replicative DNA helicase DnaB (Mycobacterium tuberculosis, UniProt P9WMR3); test: DnaB intein splicing inhibitors, dose response, biochemical, cell-free fluorescence (AID 449749); type: functional
T4 sequence (P9WMR3 whole entry): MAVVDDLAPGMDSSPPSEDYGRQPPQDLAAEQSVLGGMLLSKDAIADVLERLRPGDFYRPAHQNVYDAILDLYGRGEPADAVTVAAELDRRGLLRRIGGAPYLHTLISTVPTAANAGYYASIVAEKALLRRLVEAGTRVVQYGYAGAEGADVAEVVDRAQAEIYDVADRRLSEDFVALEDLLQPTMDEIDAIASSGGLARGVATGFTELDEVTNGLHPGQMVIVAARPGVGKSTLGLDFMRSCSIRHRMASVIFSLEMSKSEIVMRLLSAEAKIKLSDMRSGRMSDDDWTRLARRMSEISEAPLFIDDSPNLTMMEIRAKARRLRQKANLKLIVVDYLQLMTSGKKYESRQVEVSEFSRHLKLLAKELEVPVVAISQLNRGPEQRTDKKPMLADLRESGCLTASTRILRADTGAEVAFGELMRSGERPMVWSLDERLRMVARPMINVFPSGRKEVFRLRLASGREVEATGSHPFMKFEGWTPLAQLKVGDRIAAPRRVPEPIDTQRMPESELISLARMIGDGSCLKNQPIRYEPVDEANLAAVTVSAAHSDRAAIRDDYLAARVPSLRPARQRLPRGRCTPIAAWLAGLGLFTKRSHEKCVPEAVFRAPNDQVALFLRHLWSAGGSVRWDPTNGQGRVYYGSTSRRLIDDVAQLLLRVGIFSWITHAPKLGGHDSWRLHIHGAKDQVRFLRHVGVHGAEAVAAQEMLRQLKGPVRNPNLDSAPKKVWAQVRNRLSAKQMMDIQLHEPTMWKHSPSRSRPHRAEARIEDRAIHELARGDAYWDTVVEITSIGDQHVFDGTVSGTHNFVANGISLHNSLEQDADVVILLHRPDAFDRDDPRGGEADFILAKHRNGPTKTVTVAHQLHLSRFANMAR

Protein RecA = molecular target: T5, Protein RecA (Mycobacterium tuberculosis, UniProt P9WHJ3); test: Fluorescence Cell-Free Homogeneous Dose Retest to Identify Inhibitors of RecA-Intein Splicing Activity. [Related pubchem assays (depositor defined):AID2097, AID2223, AID489010, AID492950]; type: functional
T5 sequence (P9WHJ3 whole entry): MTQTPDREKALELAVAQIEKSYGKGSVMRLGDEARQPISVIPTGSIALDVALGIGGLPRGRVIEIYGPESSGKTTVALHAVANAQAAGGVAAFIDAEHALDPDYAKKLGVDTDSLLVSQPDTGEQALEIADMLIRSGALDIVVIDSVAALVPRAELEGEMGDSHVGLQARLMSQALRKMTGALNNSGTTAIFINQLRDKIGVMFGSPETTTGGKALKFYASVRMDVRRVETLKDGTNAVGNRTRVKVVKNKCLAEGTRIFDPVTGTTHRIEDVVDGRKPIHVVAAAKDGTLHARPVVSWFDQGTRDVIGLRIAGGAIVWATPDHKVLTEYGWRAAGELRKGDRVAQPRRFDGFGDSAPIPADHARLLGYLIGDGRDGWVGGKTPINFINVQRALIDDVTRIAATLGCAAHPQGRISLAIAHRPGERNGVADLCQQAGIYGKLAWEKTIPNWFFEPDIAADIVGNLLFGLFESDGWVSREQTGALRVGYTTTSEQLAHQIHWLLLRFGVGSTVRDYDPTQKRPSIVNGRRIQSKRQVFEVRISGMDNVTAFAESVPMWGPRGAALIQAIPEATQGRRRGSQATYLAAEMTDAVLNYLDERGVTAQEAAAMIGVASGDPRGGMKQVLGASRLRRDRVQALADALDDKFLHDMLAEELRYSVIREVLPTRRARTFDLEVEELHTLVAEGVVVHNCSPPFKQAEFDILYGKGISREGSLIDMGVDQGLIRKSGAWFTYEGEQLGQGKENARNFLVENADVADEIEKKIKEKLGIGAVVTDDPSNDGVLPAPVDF

[8] = molecular target: T6, Mannose-6-phosphate isomerase (Homo sapiens, UniProt P34949); test: MPI inhibition at elevated mannose 6-phosphate – biochemical, fluorescence intensity, high mannose 6-phosphate, primary screen (AID 1220)
T6 sequence (P34949 whole entry): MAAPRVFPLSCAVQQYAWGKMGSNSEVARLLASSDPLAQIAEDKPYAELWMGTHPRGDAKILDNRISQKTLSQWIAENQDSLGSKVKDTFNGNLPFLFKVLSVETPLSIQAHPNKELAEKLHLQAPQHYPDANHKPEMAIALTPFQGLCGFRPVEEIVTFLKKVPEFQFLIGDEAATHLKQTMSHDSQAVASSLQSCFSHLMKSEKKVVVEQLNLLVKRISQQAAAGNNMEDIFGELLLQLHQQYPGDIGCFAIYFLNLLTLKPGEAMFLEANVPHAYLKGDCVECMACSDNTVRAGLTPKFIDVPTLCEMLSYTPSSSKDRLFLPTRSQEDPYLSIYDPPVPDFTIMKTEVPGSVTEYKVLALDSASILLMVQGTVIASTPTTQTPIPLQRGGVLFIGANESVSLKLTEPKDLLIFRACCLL

[9] = NIH3T3 cell viability loss – ATP luminescence, mouse fibroblasts, counter-screen, dose response (AID 2010); type: functional, cell-based;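 further: cells exposed to compound for about 90 hours before reading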
[10] = Trypanosoma cruzi growth suppression in host cells – NIH3T3 host cells, beta-gal luminescence, confirmation (AID 2044); type: functional, cell-based;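 further: intracellular parasites grown in NIH/3T3 mouse fibroblasts as host cells; luminescent beta-galactosidase reporter signal from transgenic T. cruzi replicating inside host cells; inhibitors lower the luminescence signal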
Paired box protein Pax-8 = Paired box protein Pax-8 (Homo sapiens, UniProt Q06710); test: PAX8 transcriptional activity inhibition in RMG-I – RMG-I cells, luciferase, cherry-pick, dose response (AID 687027); type: functional, cell-based;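 further: luciferase reporter driven by Pax8 target thyroperoxidase promoter measured by SteadyGlo luminescence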
[11] = OVCAR8 cell viability loss – plate reader, dry powder samples, PAX8 project, dose response (AID 743197); type: functional, cell-based; conditions: OVCAR-8
[12] = molecular target: FAD-linked sulfhydryl oxidase ALR (Homo sapiens, UniProt P55789); test: ALR-catalysed DTT oxidation blockers – biochemical, H2O2 detection, luminescence, cherry-pick, dose response (AID 493248)
Cytochrome P450 2D6 = Cytochrome P450 2D6 (Homo sapiens, UniProt P10635);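 further: CYP2D6 member of a cytochrome P450 panel assay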
Cytochrome P450 2D6, sequence (P10635 whole entry): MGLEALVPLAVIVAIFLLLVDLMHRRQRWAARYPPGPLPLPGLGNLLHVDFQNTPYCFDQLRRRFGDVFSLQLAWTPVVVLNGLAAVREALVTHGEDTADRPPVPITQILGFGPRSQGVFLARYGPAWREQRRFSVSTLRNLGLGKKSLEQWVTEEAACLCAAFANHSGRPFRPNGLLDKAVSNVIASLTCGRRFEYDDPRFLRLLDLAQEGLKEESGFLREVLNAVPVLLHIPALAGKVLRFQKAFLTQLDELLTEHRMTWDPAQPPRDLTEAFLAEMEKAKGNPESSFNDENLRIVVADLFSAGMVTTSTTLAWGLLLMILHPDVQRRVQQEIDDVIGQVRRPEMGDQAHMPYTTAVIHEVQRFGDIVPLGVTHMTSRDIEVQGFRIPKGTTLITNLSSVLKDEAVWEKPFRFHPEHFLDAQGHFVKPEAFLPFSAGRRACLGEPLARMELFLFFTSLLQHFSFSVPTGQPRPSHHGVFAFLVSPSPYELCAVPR

DNA dC->dU-editing enzyme APOBEC-3G, sequence (Q9HC16 whole entry): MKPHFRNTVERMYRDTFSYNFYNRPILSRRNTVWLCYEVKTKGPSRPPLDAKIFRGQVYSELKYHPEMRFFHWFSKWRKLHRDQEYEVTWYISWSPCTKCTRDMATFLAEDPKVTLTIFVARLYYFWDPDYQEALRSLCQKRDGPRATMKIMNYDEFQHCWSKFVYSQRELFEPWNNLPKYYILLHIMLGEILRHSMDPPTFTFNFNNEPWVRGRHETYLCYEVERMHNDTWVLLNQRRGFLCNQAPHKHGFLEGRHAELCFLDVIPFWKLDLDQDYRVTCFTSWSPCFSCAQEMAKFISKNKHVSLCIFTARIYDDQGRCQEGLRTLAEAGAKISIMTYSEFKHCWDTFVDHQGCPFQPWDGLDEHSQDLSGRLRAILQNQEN
DNA dC->dU-editing enzyme APOBEC-3A, sequence (P31941 whole entry): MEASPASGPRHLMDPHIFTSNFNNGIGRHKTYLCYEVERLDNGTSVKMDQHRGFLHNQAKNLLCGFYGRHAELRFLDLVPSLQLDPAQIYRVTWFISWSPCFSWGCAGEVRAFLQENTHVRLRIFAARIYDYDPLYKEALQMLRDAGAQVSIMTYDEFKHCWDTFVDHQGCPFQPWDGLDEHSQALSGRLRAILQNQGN
Cytochrome P450 3A4, sequence (P08684 whole entry): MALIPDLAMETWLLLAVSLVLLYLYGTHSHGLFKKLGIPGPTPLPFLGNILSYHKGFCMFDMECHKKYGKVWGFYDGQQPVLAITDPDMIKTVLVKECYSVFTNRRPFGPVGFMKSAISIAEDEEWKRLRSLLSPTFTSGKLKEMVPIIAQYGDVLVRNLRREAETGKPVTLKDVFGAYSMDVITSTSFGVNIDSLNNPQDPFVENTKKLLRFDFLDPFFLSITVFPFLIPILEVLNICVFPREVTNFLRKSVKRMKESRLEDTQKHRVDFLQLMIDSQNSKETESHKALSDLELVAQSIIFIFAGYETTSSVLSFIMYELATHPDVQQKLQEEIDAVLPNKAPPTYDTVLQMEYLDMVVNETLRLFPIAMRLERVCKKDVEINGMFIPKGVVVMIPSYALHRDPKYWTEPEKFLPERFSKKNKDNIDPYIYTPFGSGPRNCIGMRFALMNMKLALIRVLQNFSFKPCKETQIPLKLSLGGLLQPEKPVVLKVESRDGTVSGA
Cytochrome P450 2C9, sequence (P11712 whole entry): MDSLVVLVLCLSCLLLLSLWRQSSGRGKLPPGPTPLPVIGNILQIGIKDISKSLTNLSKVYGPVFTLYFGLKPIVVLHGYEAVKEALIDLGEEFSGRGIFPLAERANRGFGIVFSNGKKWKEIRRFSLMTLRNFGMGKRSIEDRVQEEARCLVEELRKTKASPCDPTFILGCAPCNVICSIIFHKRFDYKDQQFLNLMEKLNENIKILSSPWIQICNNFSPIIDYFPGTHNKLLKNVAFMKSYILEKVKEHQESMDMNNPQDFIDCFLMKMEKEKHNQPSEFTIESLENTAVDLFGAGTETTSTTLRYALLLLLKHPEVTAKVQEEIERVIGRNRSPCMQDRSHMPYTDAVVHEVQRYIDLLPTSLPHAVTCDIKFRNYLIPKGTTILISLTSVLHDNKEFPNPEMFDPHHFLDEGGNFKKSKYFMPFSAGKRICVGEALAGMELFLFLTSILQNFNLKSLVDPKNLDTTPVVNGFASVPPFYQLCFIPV
T3 sequence (P11940 whole entry, the tested form may be a part): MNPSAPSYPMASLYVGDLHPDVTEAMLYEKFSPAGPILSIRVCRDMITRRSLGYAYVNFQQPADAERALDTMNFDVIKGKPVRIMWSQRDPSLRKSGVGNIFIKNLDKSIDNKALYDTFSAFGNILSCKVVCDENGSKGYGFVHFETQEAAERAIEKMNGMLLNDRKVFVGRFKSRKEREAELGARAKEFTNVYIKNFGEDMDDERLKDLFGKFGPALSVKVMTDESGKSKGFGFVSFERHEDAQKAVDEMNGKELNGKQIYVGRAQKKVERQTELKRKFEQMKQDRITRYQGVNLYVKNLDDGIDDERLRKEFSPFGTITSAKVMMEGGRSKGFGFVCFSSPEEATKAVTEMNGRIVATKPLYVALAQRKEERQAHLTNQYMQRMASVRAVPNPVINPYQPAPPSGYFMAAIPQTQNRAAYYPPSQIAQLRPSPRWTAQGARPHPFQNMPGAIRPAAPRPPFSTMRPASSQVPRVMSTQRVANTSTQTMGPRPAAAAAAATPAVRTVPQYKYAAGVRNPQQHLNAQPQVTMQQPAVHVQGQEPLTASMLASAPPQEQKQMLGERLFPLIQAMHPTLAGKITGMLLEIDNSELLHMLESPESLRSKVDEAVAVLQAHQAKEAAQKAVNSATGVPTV
Paired box protein Pax-8, sequence (Q06710 whole entry): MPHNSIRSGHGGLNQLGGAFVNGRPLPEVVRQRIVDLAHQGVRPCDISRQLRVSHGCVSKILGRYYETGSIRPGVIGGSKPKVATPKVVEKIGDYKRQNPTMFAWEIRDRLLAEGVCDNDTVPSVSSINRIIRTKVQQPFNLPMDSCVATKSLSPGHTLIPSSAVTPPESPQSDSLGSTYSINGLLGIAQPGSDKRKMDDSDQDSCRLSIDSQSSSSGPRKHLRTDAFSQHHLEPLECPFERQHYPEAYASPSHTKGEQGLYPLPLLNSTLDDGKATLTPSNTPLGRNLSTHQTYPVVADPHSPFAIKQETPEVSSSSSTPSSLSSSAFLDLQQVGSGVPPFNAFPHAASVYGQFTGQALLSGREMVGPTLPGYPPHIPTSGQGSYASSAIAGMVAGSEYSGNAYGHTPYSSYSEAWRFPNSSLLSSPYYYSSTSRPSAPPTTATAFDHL
Cytochrome P450 2C19, sequence (P33261 whole entry): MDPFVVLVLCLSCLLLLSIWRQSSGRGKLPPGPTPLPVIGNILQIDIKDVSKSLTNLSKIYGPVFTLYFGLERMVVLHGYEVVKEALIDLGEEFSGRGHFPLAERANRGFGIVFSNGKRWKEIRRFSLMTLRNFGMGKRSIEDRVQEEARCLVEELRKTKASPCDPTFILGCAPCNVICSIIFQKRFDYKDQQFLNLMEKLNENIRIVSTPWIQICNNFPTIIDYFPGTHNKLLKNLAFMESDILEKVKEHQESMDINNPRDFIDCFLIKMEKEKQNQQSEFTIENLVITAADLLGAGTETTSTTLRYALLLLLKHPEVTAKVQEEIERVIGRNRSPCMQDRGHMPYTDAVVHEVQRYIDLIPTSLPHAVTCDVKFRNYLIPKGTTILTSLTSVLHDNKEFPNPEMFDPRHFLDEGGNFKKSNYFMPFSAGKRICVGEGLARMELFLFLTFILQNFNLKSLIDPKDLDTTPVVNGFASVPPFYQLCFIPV
FAD-linked sulfhydryl oxidase ALR, sequence (P55789 whole entry): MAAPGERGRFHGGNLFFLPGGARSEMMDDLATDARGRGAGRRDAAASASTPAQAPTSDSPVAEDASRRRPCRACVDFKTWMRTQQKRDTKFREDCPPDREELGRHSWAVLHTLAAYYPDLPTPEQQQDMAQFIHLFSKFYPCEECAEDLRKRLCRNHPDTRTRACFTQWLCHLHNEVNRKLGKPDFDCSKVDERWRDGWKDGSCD

CCCC[N+]12CCC(CC1)C(C(=O)c1cccs1)C2 (stereo unspecified)
AC50 (Cytochrome P450 2C19): 39.8 µM (inconclusive)
AC50 (Cytochrome P450 2C9): 10 µM (inconclusive)
IC50 [1]: 2.42 µM (active)
IC50 [2]: 2.56 µM (active)

C=CCN(CC=C)C(=S)Nc1ccc2nsnc2c1
IC50 [3]: > 128 µM (inactive)
AC50 [4]: 15 µM (active)
IC50 [5]: > 66 µM (inactive)
IC50 [6]: > 66 µM (inactive)

CCOc1cc(/C=C2/C(=O)N(c3ccccc3)N=C2C)ccc1OC(=O)c1ccco1
AC50 (Cytochrome P450 3A4): 25.1 µM (inconclusive)
IC50 [3]: 119 µM (inactive)
AC50 [7]: 2.68 µM (active)
EC50 (Protein RecA): 1.64 µM (active)

CC1=CC(=Nc2c(C)n(C)n(-c3ccccc3)c2=O)C=C(C)C1=O
IC50 [8]: 13.2 µM (active)

COCC(C)N1C(=O)Cc2c1nc(N)c1c(N)nc(N3CCN(c4ccccc4F)CC3)c(C#N)c21 (stereo unspecified)
IC50 [8]: > 50 µM (not active)

CN1CCC(N(C)S(=O)(=O)c2ccc(NC(=O)COc3ccc(F)cc3)cc2)CC1
EC50 [9]: > 60 µM (not active)
EC50 [10]: 0.835 µM (active)
IC50 [1]: 3.71 µM (active)
IC50 [2]: 3.53 µM (active)

C[C@@H]1CCCCO[C@H](CN(C)Cc2ccc(C(F)(F)F)cc2)[C@@H](C)CN([C@@H](C)CO)C(=O)c2cc(NS(=O)(=O)c3ccc(Cl)cc3)ccc2O1
AC50 (Paired box protein Pax-8): 6.82 µM (active)
AC50 [11]: 40.7 µM (active)

CC(=O)Nc1cc(-c2ccccc2)ccc1O
AC50 [12]: 1.1 µM (active)
IC50 [1]: 7.17 µM (active)
IC50 [2]: 16.5 µM (active)

O=[N+]([O-])c1cc2c(cc1/C=N/c1ccccc1)OCO2
AC50 (Cytochrome P450 2C9): 10 µM (inconclusive)
AC50 (Cytochrome P450 3A4): 20 µM (inconclusive)
AC50 (Cytochrome P450 2D6): 25.1 µM (inconclusive)
IC50 [8]: > 50 µM (not active)

CC(C)C(NC(=O)COc1ccc2ccccc2c1)C(=O)N/N=C/C=C/c1ccccc1 (stereo unspecified)
IC50 [1]: 3.22 µM (active)
IC50 [2]: 4.97 µM (active)

CCOCc1cnc(C)nc1NCC(=O)c1c(C)[nH]c2cc(C)ccc12
IC50 [1]: 4.29 µM (active)
IC50 [2]: 4.04 µM (active)
